From the supplement of paper PMC10307832

Columns and labels:
Assay in all cases: relative viability (nuclei count vs DMSO), 5 days (fraction); higher = more cells survive
[1] = compound: C(C(=O)C(=O)O)Br [Bromopyruvate] + O=C(CCCCCCC(=O)Nc1ccccc1)NO [Vorinostat] (partner 1 µM)
Summary of the method: (§1)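 Lung cancer cell lines were seeded in 1536-well plates and dosed by pin tool the next day, with either a single drug or a fixed anchor-drug dose combined with five library-drug doses (not always all listed) spaced in √10 steps. Five days later, one step fixed the cells and stained their nuclei (final 0.05% Triton X-100, 1% formaldehyde, 1 ug/ml Hoechst), and nuclei were counted on 4× images. Relative viability is the nuclei count in treated wells divided by the count in vehicle wells, and each value is the median of duplicate plates.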

[2] = compound: C(C(=O)C(=O)O)Br [Bromopyruvate] + CC(C)C[C@H](NC(=O)[C@H](Cc1ccccc1)NC(=O)c1cnccn1)B(O)O [Bortezomib] (partner 0.002 µM)
Summary of the method: as §1

[3] = compound: CC(O)(CS(=O)(=O)c1ccc(F)cc1)C(=O)Nc1ccc(C#N)c(C(F)(F)F)c1 [Bicalutamide] + NC(=O)Nc1cc(-c2cccc(F)c2)sc1C(=O)N[C@H]1CCCNC1 [AZD7762] (partner 0.2 µM)
Summary of the method: as §1

[4] = compound: CC(O)(CS(=O)(=O)c1ccc(F)cc1)C(=O)Nc1ccc(C#N)c(C(F)(F)F)c1 [Bicalutamide] + N=C(N)NC(=N)NCCc1ccccc1 [Phenformin] (partner 250 µM)
Summary of the method: as §1

Cell Line	relative viability ([1]; first compound 1 µM)	relative viability ([1]; first compound 3.162 µM)	relative viability ([1]; first compound 10 µM)	relative viability ([1]; first compound 31.62 µM)	relative viability ([1]; first compound 100 µM)	relative viability ([2]; first compound 1 µM)	relative viability ([2]; first compound 3.162 µM)	relative viability ([2]; first compound 10 µM)	relative viability ([2]; first compound 31.62 µM)	relative viability ([2]; first compound 100 µM)	relative viability ([3]; first compound 0.08 µM)	relative viability ([3]; first compound 0.253 µM)	relative viability ([3]; first compound 0.8 µM)	relative viability ([3]; first compound 2.53 µM)	relative viability ([4]; first compound 0.08 µM)	relative viability ([4]; first compound 0.253 µM)	relative viability ([4]; first compound 0.8 µM)	relative viability ([4]; first compound 2.53 µM)
HCC-44	1.12	1.04	1.07	1.1	1.13	0.914	0.897	0.872	0.918	0.962	1.02	1.05	1.02	1.01	0.302	0.177	0.292	0.184
HCC-827	0.844	0.982	0.968	0.886	0.741	1.05	1.07	1.03	1.08	1.05	0.234	0.124	0.217	0.227	0.405	0.316	0.412	0.443
NCI-H1623	–	–	–	–	–	–	–	–	–	–	–	–	–	–	–	0.594	0.587	0.55
NCI-H2405	1.35	1.01	0.814	–	0.742	1.02	0.992	1.19	0.954	1.04	0.739	0.713	0.88	0.694	0.436	0.358	0.468	0.415
PC-3 [JPC-3]	1.1	–	0.536	–	0.764	0.796	0.74	0.832	0.785	0.856	0.86	0.815	0.912	0.874	0.46	0.472	0.505	0.505
NCI-H1651	0.612	0.573	0.578	0.466	0.345	0.922	0.952	1.04	0.822	0.867	0.513	0.396	0.549	0.436	0.36	0.377	0.411	0.345
HARA	0.692	0.511	0.628	0.528	0.37	1.11	1.13	1.13	1.17	1.15	0.382	–	0.368	0.262	0.516	0.388	0.595	0.481
NCI-H1650	0.549	0.388	0.505	0.54	0.304	0.196	0.194	0.209	0.255	0.19	–	–	–	–	0.429	0.375	0.493	0.378
NCI-H1395	1.03	0.791	0.649	0.683	0.681	–	–	–	–	–	0.402	0.399	0.394	0.377	0.467	0.417	0.478	0.446
NCI-H1993	0.19	0.862	0.83	0.72	0.842	1.34	0.954	1.21	1.08	1.15	0.539	0.744	0.919	0.58	0.437	0.51	0.434	0.447
LU99A	0.46	0.526	0.567	0.532	0.409	1.18	1.11	1.05	1.05	1.26	0.431	0.286	0.544	0.252	0.917	0.715	0.997	0.663
NCI-H1355	0.668	0.641	0.646	0.607	0.606	1.35	1.16	1.25	1.34	1.16	0.828	0.701	0.923	0.72	0.456	0.44	0.481	0.492
HCC-78	0.493	0.443	0.444	0.404	0.427	0.282	0.615	0.569	0.563	0.495	0.758	0.598	0.696	0.611	0.776	0.557	0.796	0.668
NCI-H1563	–	–	–	–	–	0.859	0.925	0.868	0.789	0.943	–	–	–	–	0.695	0.718	0.654	0.629
LK-2	0.333	0.203	0.218	0.297	0.165	–	–	–	–	–	0.432	0.254	0.442	0.495	0.526	0.198	0.498	0.629
COR-L23	0.381	0.473	0.432	0.387	0.255	0.943	0.939	1.12	0.975	0.486	–	–	–	–	0.5	0.487	0.512	0.414
SW 900	0.393	0.487	0.559	0.377	0.476	–	–	–	–	–	0.707	0.645	0.745	0.586	0.511	0.555	0.874	0.411
NCI-H1648	0.324	0.566	0.563	0.766	0.314	–	–	–	–	–	–	–	0.736	0.686	–	–	–	–
A549	–	–	–	–	–	–	–	–	–	–	–	–	–	–	0.247	0.11	0.181	0.254
NCI-H1792	–	–	–	–	–	1.01	0.932	1.11	0.879	0.915	0.756	0.522	0.741	0.644	0.275	–	0.444	0.344

Cell Line	relative viability ([1]; first compound 1 µM)	relative viability ([1]; first compound 3.162 µM)	relative viability ([1]; first compound 10 µM)	relative viability ([1]; first compound 31.62 µM)	relative viability ([1]; first compound 100 µM)	relative viability ([2]; first compound 1 µM)	relative viability ([2]; first compound 3.162 µM)	relative viability ([2]; first compound 10 µM)	relative viability ([2]; first compound 31.62 µM)	relative viability ([2]; first compound 100 µM)	relative viability ([3]; first compound 0.08 µM)	relative viability ([3]; first compound 0.253 µM)	relative viability ([3]; first compound 0.8 µM)	relative viability ([3]; first compound 2.53 µM)	relative viability ([4]; first compound 0.08 µM)	relative viability ([4]; first compound 0.253 µM)	relative viability ([4]; first compound 0.8 µM)	relative viability ([4]; first compound 2.53 µM)
NCI-H1703	–	–	–	–	–	0.369	0.244	0.366	0.315	0.543	0.123	0.117	0.162	0.174	–	–	–	–
SW 1573	0.799	0.861	0.924	0.478	0.0513	0.935	1.02	1.18	1.08	0.392	–	–	–	–	0.413	–	0.377	0.366
COR-L 105	0.708	0.68	0.645	0.665	0.411	0.559	0.876	0.526	0.769	0.566	–	–	–	–	0.481	0.412	0.52	0.37
Calu-6	–	–	–	–	–	1.09	1.05	1.07	0.993	0.903	–	–	–	–	–	–	–	–
NCI-H2009	0.72	0.682	0.622	0.546	0.266	1.02	1.02	0.918	0.897	0.768	–	–	–	–	0.504	0.491	0.469	0.423
SK-LU-1	0.744	0.81	0.728	0.632	0.713	1.44	1.01	1.82	0.987	1.27	–	–	–	–	0.571	0.519	0.637	0.48
NCI-H358	0.77	0.607	0.626	0.541	0.505	–	–	–	–	–	0.562	0.489	0.64	0.547	0.336	0.344	0.401	0.35
NCI-H1944	0.592	0.647	0.582	0.568	0.654	–	–	–	–	–	0.496	0.438	0.519	0.366	0.216	0.181	0.238	0.217
NCI-H2342	0.807	0.806	0.7	0.622	0.684	–	–	–	–	–	0.553	0.478	0.528	0.568	0.641	0.466	0.702	0.608
EBC-1	–	–	–	–	–	0.527	0.67	0.56	0.574	0.511	–	–	–	–	–	–	–	–
NCI-H1299	–	–	–	–	–	0.973	1.02	1.06	0.956	1	–	–	–	–	–	–	–	–
NCI-H522	0.93	1.02	1.02	0.799	0.763	–	–	–	–	–	0.762	0.849	0.916	0.808	0.659	0.649	0.622	0.661
IA-LM	0.964	0.975	1.15	0.861	0.696	0.872	0.835	0.908	0.835	0.64	–	–	–	–	–	–	–	–
SK-MES-1	1.08	1.2	1.04	0.94	0.965	–	–	–	–	–	–	–	–	–	0.726	0.654	0.728	0.617
NCI-H2170	0.911	0.853	0.79	0.802	0.705	–	–	–	–	–	0.805	0.817	1.26	0.902	0.418	0.412	0.429	0.47
NCI-H520	0.543	0.745	0.706	0.731	0.469	0.6	0.595	0.532	0.49	0.541	–	–	–	–	0.707	0.421	0.61	0.366
NCI-H661	0.767	0.798	0.779	0.712	0.712	0.862	0.755	0.84	0.854	0.98	–	–	–	–	0.289	0.284	0.289	0.251
NCI-H1793	0.792	0.914	0.794	0.727	0.634	–	–	–	–	–	0.705	–	0.432	0.282	0.317	0.318	0.545	0.392
NCI-H2228	0.454	0.723	0.764	0.581	0.372	0.857	1.15	1.36	0.817	0.946	–	–	–	–	0.356	0.371	0.58	0.291
NCI-H2023	0.547	0.687	0.619	0.464	0.615	0.95	1.09	0.969	0.914	1.06	–	–	–	–	0.447	0.315	0.456	0.454
